Data published in BindingDB's records for doi:10.1038/nchembio.2174 (Oncology Innovative Medicines Unit, 2016).

target: T1, Induced myeloid leukemia cell differentiation protein Mcl-1 [171-327] (Homo sapiens, UniProt Q07820); assay: TR-FRET Binding A; settings: pH 7.4; 24 °C
T1 construct: 171-327
Protocol: Compound IC50 values were assessed following a 10-point, half-log10 dilution schema starting at 10 uM compound concentration. The assay was performed in 384-well LV plates (Matrix 4365, Thermo Scientific) and run in the presence and absence of the compound of interest. Each well of 12 uL assay mixture contained 10 mM Tris (pH 7.4), 1 mM DTT, 0.005% Tween-20, 150 mM NaCl, 10% DMSO, 3 nM GST-Mcl-1, 1 nM LanthaScreen Eu-tagged GST antibody (#PV5594, Invitrogen, Life Technologies), and 8 nM fluorescently labeled peptide. Reactions were incubated at 24 °C for 60 min before reading on a Tecan F500 spectrofluorometer with excitation at 340 nm and emission at 620 nm and 665 nm. Subsequently, the ratio of fluorescence emission intensity at 665 nm to 620 nm was calculated for each reaction, and the dose response of the ratio to testing compound concentration was fitted to a select fit model that will provide the best fit quality using automatic parameters to derive IC50 values for each testing compound.

T1 sequence (Q07820 171-327): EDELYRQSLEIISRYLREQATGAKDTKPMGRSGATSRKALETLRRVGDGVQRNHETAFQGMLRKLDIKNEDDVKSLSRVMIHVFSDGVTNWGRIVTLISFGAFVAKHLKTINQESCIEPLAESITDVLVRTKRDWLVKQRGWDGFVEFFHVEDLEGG

| Structure (SMILES) | IC50 [nM] | Ki [nM] |
| --- | --- | --- |
| Cc1c(-c2cccc3c(CCCOc4cccc5ccccc45)c(C(=O)O)[nH]c23)c(COc2ccccc2)nn1C [Mcl-1 inhibitor 10] | 383 | 104 |
| Cc1c(-c2cccc3c(CCCOc4cccc5ccccc45)c(C(=O)O)[nH]c23)c(COc2cccc(C=O)c2)nn1C [7-(3-((3-formylphenoxy)methyl)-1,5-dimethyl-1H-pyrazol-4-yl)-3-(3-(naphthalen-1-yloxy)propyl)-1H-indole-2-carboxylic acid, 7] | 59.5 | 16 |
| CC(=O)c1cccc(OCc2nn(C)c(C)c2-c2cccc3c(CCCOc4cccc5ccccc45)c(C(=O)O)[nH]c23)c1 [7-(3-((3-Acetylphenoxy)methyl)-1,5-dimethyl-1H-pyrazol-4-yl)-3-(3-(naphthalen-1-yloxy)propyl)-1H-indole-2-carboxylic acid, 8] | 237 | 64 |

Compounds with a lower IC50, results first:

| IC50 [nM] | Ki [nM] | Structure (SMILES) |
| --- | --- | --- |
| 4.2 | 1.2 | Cc1c(-c2cccc3c(CCCOc4cccc5ccccc45)c(C(=O)O)n(C)c23)c(COc2ccc(B(O)O)c(C=O)c2)nn1C [7-(3-((4-Borono-3-formylphenoxy)methyl)-1,5-dimethyl-1Hpyrazol-4-yl)-1-methyl-3-(3-(naphthalen-1-yloxy)propyl)-1H-indole-2-carboxylic acid, 11] |
| 5.96 | 1.6 | CCc1nn(C)c(CC)c1-c1cccc2c(CCCOc3cccc4ccccc34)c(C(=O)O)n(CCN3CCOCC3)c12 [Mcl-1 inhibitor 12] |
| 3.4 | 0.9 | Cc1c(-c2cccc3c(CCCOc4cccc5ccccc45)c(C(=O)O)[nH]c23)c(COc2ccc(B(O)O)c(C=O)c2)nn1C [7-(3-((4-Borono-3-formylphenoxy)methyl)-1,5-dimethyl-1Hpyrazol-4-yl)-3-(3-(naphthalen-1-yloxy)propyl)-1H-indole-2-carboxylic acid, 5] |
| 4.7 | 1.2 | CC(=O)c1cc(OCc2nn(C)c(C)c2-c2cccc3c(CCCOc4cccc5ccccc45)c(C(=O)O)[nH]c23)ccc1B(O)O [7-(3-((3-Acetyl-4-boronophenoxy)methyl)-1,5-dimethyl-1H-pyrazol-4-yl)-3-(3-(naphthalen-1-yloxy)propyl)-1H-indole-2-carboxylic acid, 6] |
